Results from patent publication US10072026B2, “Crystalline form of 3-((1R,3s,5S)-3-((7-((5-methyl-1H-pyrazol-3-yl)amino)-1,6-naphthyridin-5-yl)amino)-8-azabicyclo[3.2.1]octan-8-yl)propanenitrile” (priority 2015, dated 2018).
Where two headings read alike, the source gives them in different places.

Experiments:
[1] = test system: IL-4 induced STAT6 phosphorylation in THP-1 human monocytic cells; assay: Cellular JAK potency assay, THP-1; settings: for THP-1 IL4 pIC50: IL-4 induced STAT6 phosphorylation, THP-1 cells; for IC50: Homo sapiens, THP-1, read-out: THP-1 IL4 pIC50 (converted)
JAK1 = JAK1 (Homo sapiens (Human), UniProt P23458); assay: LanthaScreen JAK biochemical assay (JAK1)
Chain of JAK1 (P23458 whole entry): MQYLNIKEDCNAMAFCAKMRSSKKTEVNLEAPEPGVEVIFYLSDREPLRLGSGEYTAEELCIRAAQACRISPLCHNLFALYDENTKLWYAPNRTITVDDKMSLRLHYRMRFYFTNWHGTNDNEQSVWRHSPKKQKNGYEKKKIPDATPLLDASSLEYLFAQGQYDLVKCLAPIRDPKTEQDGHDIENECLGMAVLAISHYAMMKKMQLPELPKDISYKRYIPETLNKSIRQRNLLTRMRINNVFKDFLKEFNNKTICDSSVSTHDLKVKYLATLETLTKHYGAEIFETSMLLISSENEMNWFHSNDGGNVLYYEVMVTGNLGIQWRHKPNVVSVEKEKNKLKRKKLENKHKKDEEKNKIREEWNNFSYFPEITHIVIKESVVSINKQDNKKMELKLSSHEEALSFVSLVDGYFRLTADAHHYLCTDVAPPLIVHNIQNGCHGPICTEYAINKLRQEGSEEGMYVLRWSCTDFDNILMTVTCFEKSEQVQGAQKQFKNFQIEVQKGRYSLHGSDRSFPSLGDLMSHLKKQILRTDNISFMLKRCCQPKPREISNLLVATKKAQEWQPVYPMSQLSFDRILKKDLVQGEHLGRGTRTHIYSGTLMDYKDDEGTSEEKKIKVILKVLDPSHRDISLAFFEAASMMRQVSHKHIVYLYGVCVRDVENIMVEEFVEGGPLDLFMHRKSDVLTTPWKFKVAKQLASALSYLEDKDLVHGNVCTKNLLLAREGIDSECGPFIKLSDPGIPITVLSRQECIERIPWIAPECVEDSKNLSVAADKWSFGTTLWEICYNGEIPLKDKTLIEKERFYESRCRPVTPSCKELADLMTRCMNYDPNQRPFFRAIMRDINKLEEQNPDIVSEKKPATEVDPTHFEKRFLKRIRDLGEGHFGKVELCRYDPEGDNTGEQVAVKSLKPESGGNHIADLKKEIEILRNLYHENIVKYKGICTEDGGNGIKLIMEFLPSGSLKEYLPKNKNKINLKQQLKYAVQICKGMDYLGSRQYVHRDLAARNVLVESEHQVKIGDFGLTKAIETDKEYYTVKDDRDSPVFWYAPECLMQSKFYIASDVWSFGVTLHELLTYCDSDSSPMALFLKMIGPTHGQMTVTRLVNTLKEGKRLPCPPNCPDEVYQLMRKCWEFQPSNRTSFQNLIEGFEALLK

JAK2 = JAK2 (Homo sapiens (Human), UniProt O60674); assay: LanthaScreen JAK biochemical assay (JAK2)
Chain of JAK2 (O60674 whole entry): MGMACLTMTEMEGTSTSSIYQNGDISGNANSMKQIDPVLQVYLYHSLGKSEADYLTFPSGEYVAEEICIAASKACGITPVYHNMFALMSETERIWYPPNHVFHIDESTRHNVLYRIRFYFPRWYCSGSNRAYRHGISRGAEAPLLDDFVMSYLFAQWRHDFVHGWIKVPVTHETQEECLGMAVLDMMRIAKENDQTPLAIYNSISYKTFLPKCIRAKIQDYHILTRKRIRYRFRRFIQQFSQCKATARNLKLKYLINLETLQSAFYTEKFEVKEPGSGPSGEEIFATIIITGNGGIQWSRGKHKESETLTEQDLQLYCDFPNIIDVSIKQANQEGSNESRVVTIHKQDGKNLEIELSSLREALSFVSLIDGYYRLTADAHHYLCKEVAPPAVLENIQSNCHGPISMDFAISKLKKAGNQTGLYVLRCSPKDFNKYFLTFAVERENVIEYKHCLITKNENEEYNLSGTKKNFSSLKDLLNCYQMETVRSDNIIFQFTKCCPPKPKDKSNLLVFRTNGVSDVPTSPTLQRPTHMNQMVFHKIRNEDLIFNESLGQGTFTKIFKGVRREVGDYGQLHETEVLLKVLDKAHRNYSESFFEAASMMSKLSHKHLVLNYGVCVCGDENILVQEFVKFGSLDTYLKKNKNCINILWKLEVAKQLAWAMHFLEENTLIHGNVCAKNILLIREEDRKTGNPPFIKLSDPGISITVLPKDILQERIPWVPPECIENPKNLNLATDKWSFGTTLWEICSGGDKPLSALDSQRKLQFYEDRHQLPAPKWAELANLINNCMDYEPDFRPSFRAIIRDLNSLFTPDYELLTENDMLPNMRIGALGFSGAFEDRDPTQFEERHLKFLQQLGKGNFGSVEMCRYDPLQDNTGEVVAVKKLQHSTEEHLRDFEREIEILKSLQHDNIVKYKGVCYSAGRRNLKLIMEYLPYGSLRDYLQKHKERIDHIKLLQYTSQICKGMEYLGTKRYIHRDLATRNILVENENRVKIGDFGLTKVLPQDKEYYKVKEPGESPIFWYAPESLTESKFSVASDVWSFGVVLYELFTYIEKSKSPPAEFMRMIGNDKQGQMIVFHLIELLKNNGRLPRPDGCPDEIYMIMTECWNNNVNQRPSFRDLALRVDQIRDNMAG

[2] = read-out: JAK 2 (pKi) (converted)
[3] = read-out: JAK 1 (pKi) (converted)

Row | Structure (SMILES) | THP-1 IL4 pIC50 [1] | JAK 1 (pKi) (JAK1) | JAK 2 (pKi) (JAK2) | IC50 [1] | Ki (JAK1) | Ki (JAK2; [2]) | Ki (JAK1; [3]) | Ki (JAK2)
1 | Cc1cc(Nc2cc3ncccc3c(N[C@@H]3C[C@H]4CC[C@@H](C3)N4CC(=O)OC(C)C)n2)n[nH]1 [Example 1-4] | B (B represents a pEC50 value between 6.7 and 7.5 (EC50 between 200 nM and 32 nM)) | B (B represents a pKi value between 9 and 10 (Ki between 1 nM and 0.1 nM)) | B (B represents a pKi value between 9 and 10 (Ki between 1 nM and 0.1 nM)) | – | – | – | – | –
2 | Cc1cc(Nc2cc3ncccc3c(N[C@@H]3C[C@H]4CC[C@@H](C3)N4CC(=O)OC(C)(C)C)n2)n[nH]1 [Example 1-5] | B (B represents a pEC50 value between 6.7 and 7.5 (EC50 between 200 nM and 32 nM)) | B (B represents a pKi value between 9 and 10 (Ki between 1 nM and 0.1 nM)) | B (B represents a pKi value between 9 and 10 (Ki between 1 nM and 0.1 nM)) | – | – | – | – | –
3 | CNC(=O)CN1[C@@H]2CC[C@H]1C[C@H](Nc1nc(Nc3cc(C)[nH]n3)cc3ncccc13)C2 [Example 1-7] | C (C represents a pEC50 value<6.7 (EC50>200 nM)) | B (B represents a pKi value between 9 and 10 (Ki between 1 nM and 0.1 nM)) | B (B represents a pKi value between 9 and 10 (Ki between 1 nM and 0.1 nM)) | – | – | – | – | –
4 | Cc1cc(Nc2cc3ncccc3c(N[C@@H]3C[C@H]4CC[C@@H](C3)N4CCC(F)(F)F)n2)n[nH]1 [Example 1-10] | C (C represents a pEC50 value<6.7 (EC50>200 nM)) | B (B represents a pKi value between 9 and 10 (Ki between 1 nM and 0.1 nM)) | B (B represents a pKi value between 9 and 10 (Ki between 1 nM and 0.1 nM)) | – | – | – | – | –
5 | Cc1cc(Nc2cc3ncccc3c(N[C@@H]3C[C@H]4CC[C@@H](C3)N4Cc3cccnc3)n2)n[nH]1 [Example 1-16] | B (B represents a pEC50 value between 6.7 and 7.5 (EC50 between 200 nM and 32 nM)) | B (B represents a pKi value between 9 and 10 (Ki between 1 nM and 0.1 nM)) | B (B represents a pKi value between 9 and 10 (Ki between 1 nM and 0.1 nM)) | – | – | – | – | –
6 | Cc1cc(Nc2cc3ncccc3c(N[C@@H]3C[C@H]4CC[C@@H](C3)N4CC3CCOCC3)n2)n[nH]1 [Example 1-20] | B (B represents a pEC50 value between 6.7 and 7.5 (EC50 between 200 nM and 32 nM)) | B (B represents a pKi value between 9 and 10 (Ki between 1 nM and 0.1 nM)) | B (B represents a pKi value between 9 and 10 (Ki between 1 nM and 0.1 nM)) | – | – | – | – | –
7 | Cc1cc(Nc2cc3ncccc3c(N[C@@H]3C[C@H]4CCC[C@@H](C3)N4CC(=O)OC(C)(C)C)n2)n[nH]1 [Example 1-36] | B (B represents a pEC50 value between 6.7 and 7.5 (EC50 between 200 nM and 32 nM)) | B (B represents a pKi value between 9 and 10 (Ki between 1 nM and 0.1 nM)) | B (B represents a pKi value between 9 and 10 (Ki between 1 nM and 0.1 nM)) | – | – | – | – | –
8 | Cc1cc(Nc2cc3ncccc3c(N[C@@H]3C[C@H]4CCC[C@@H](C3)N4Cc3ccncc3)n2)n[nH]1 [Example 1-48] | B (B represents a pEC50 value between 6.7 and 7.5 (EC50 between 200 nM and 32 nM)) | A (A represents a pKi value≥10 (Ki≤0.1 nM)) | A (A represents a pKi value≥10 (Ki≤0.1 nM)) | – | – | – | – | –
9 | Cc1cc(Nc2cc3ncccc3c(N[C@@H]3C[C@H]4CCC[C@@H](C3)N4C3CCCOC3=O)n2)n[nH]1 (some centres unmarked) [Example 1-53] | B (B represents a pEC50 value between 6.7 and 7.5 (EC50 between 200 nM and 32 nM)) | B (B represents a pKi value between 9 and 10 (Ki between 1 nM and 0.1 nM)) | B (B represents a pKi value between 9 and 10 (Ki between 1 nM and 0.1 nM)) | – | – | – | – | –
10 | Cc1cc(Nc2cc3ncccc3c(N[C@@H]3C[C@H]4CCC[C@@H](C3)N4C[C@H]3CCC(=O)O3)n2)n[nH]1 [Example 1-57] | B (B represents a pEC50 value between 6.7 and 7.5 (EC50 between 200 nM and 32 nM)) | B (B represents a pKi value between 9 and 10 (Ki between 1 nM and 0.1 nM)) | B (B represents a pKi value between 9 and 10 (Ki between 1 nM and 0.1 nM)) | – | – | – | – | –
11 | Cc1cc(Nc2cc3ncccc3c(N[C@@H]3C[C@H]4CC[C@@H](C3)N4C(=O)C3(C)CCCC3)n2)n[nH]1 [Example 2-10] | – | – | – | 31.6 to 200 nM | 0.1 to 1 nM | 0.1 to 1 nM | – | –
12 | Cc1cc(Nc2cc3ncccc3c(N[C@@H]3C[C@H]4CC[C@@H](C3)N4C(=O)Cc3ccccc3)n2)n[nH]1 [Example 2-11] | B (B represents a pEC50 value between 6.7 and 7.5 (EC50 between 200 nM and 32 nM)) | B (B represents a pKi value between 9 and 10 (Ki between 1 nM and 0.1 nM)) | B (B represents a pKi value between 9 and 10 (Ki between 1 nM and 0.1 nM)) | – | – | – | – | –
13 | Cc1cc(Nc2cc3ncccc3c(N[C@@H]3C[C@H]4CC[C@@H](C3)N4C(=O)c3ccccc3)n2)n[nH]1 [Example 2-12] | – | – | – | 31.6 to 200 nM | – | 0.1 to 1 nM | 0.1 to 1 nM | –
14 | Cc1cc(Nc2cc3ncccc3c(N[C@@H]3C[C@H]4CC[C@@H](C3)N4C(=O)c3ccncc3)n2)n[nH]1 [Example 2-13] | – | – | – | 31.6 to 200 nM | – | 0.1 to 1 nM | 0.1 to 1 nM | –
15 | Cc1cc(Nc2cc3ncccc3c(N[C@@H]3C[C@H]4CC[C@@H](C3)N4C(=O)c3cccnc3)n2)n[nH]1 [Example 2-14] | – | – | – | > 200 nM | 0.1 to 1 nM | 0.1 to 1 nM | – | –
16 | CCC(=O)N1[C@@H]2CCC[C@H]1C[C@H](Nc1nc(Nc3cc(C)[nH]n3)cc3ncccc13)C2 [Example 2-15] | A (A represents a pEC50 value≥7.5 (EC50≤32 nM)) | B (B represents a pKi value between 9 and 10 (Ki between 1 nM and 0.1 nM)) | B (B represents a pKi value between 9 and 10 (Ki between 1 nM and 0.1 nM)) | – | – | – | – | –
17 | CCOC(=O)N1[C@@H]2CC[C@H]1C[C@H](Nc1nc(Nc3cc(C)[nH]n3)cc3ncccc13)C2 [Example 3-1] | – | – | – | < 31.6 nM | – | 0.1 to 1 nM | 0.1 to 1 nM | –
18 | Cc1cc(Nc2cc3ncccc3c(N[C@@H]3C[C@H]4CC[C@@H](C3)N4C(=O)OC(C)C)n2)n[nH]1 [Example 3-2] | – | – | – | < 31.6 nM | 0.1 to 1 nM | – | – | 0.1 to 1 nM
19 | C=CCOC(=O)N1[C@@H]2CC[C@H]1C[C@H](Nc1nc(Nc3cc(C)[nH]n3)cc3ncccc13)C2 [Example 3-4] | A (A represents a pEC50 value≥7.5 (EC50≤32 nM)) | B (B represents a pKi value between 9 and 10 (Ki between 1 nM and 0.1 nM)) | B (B represents a pKi value between 9 and 10 (Ki between 1 nM and 0.1 nM)) | – | – | – | – | –
20 | Cc1cc(Nc2cc3ncccc3c(N[C@@H]3C[C@H]4CCC[C@@H](C3)N4C(=O)OCC(C)C)n2)n[nH]1 [Example 3-7] | B (B represents a pEC50 value between 6.7 and 7.5 (EC50 between 200 nM and 32 nM)) | B (B represents a pKi value between 9 and 10 (Ki between 1 nM and 0.1 nM)) | B (B represents a pKi value between 9 and 10 (Ki between 1 nM and 0.1 nM)) | – | – | – | – | –
21 | C=CCOC(=O)N1[C@@H]2CCC[C@H]1C[C@H](Nc1nc(Nc3cc(C)[nH]n3)cc3ncccc13)C2 [Example 3-8] | A (A represents a pEC50 value≥7.5 (EC50≤32 nM)) | B (B represents a pKi value between 9 and 10 (Ki between 1 nM and 0.1 nM)) | B (B represents a pKi value between 9 and 10 (Ki between 1 nM and 0.1 nM)) | – | – | – | – | –
22 | COCCOC(=O)N1[C@@H]2CCC[C@H]1C[C@H](Nc1nc(Nc3cc(C)[nH]n3)cc3ncccc13)C2 [Example 3-9] | A (A represents a pEC50 value≥7.5 (EC50≤32 nM)) | B (B represents a pKi value between 9 and 10 (Ki between 1 nM and 0.1 nM)) | B (B represents a pKi value between 9 and 10 (Ki between 1 nM and 0.1 nM)) | – | – | – | – | –
23 | Cc1cc(Nc2cc3ncccc3c(N[C@@H]3C[C@H]4CC[C@@H](C3)N4S(=O)(=O)C3CCCC3)n2)n[nH]1 [Example 4-5] | – | – | – | < 31.6 nM | – | – | 0.1 to 1 nM | 0.1 to 1 nM
24 | Cc1cc(Nc2cc3ncccc3c(N[C@@H]3C[C@H]4CC[C@@H](C3)N4S(=O)(=O)N3CCC3)n2)n[nH]1 [Example 4-6] | – | – | – | < 31.6 nM | – | – | 0.1 to 1 nM | 0.1 to 1 nM
25 | Cc1cc(Nc2cc3ncccc3c(N[C@@H]3C[C@H]4CC[C@@H](C3)N4S(=O)(=O)C3CNC3)n2)n[nH]1 [Example 4-9] | – | – | – | > 200 nM | 0.1 to 1 nM | 0.1 to 1 nM | – | –
26 | Cc1cc(Nc2cc3ncccc3c(N[C@@H]3C[C@H]4CCC[C@@H](C3)N4S(=O)(=O)Cc3ccccc3)n2)n[nH]1 [Example 4-24] | B (B represents a pEC50 value between 6.7 and 7.5 (EC50 between 200 nM and 32 nM)) | B (B represents a pKi value between 9 and 10 (Ki between 1 nM and 0.1 nM)) | B (B represents a pKi value between 9 and 10 (Ki between 1 nM and 0.1 nM)) | – | – | – | – | –
27 | COC(=O)c1cnc2cc(Nc3cc(C)[nH]n3)nc(N[C@@H]3C[C@H]4CC[C@@H](C3)N4C(=O)C(F)F)c2c1 [Example 6-37] | – | – | – | – | – | 0.1 to 1 nM | 0.1 to 1 nM | –
